# According to publication PMC7615677 (Science translational medicine, 2023):
# pEC50, pIC50: −log10 of the molar value. Read-outs that look alike come from different tables or passages of the source.
# Key:
# hERG = hERG (Homo sapiens, UniProt Q12809); assay: hERG channel test (Qpatch / Qube); format: cell-based; set-up: host or cells: Chinese hamster ovary cells; details: Qpatch hERG
# Experimental: Two concentrations (1 and 30 μM, two replicates each) were tested at room temperature.
# [1] = In vitro cytotoxicity assay; format: cell-based; details: mouse, primary mouse macrophages (PMM)
# In vivo pharmacokinetics = assay: In vivo pharmacokinetics; set-up: species or system male beagle dogs
# Experimental: Additional PK studies were also conducted by WuXi AppTec Co, Ltd (Shanghai, China) according to protocols reviewed and approved by DNDi. […] IV and oral formulations for rats, mice and hamsters were the same as described above. For dogs, the IV dose was administered in saline containing 2% DMSO and 3% Solutol HS-15 and the oral formulation was as described above. Blood was sampled up to 48 h post-dose into vials containing potassium EDTA as an anticoagulant, proteins were precipitated with acetonitrile and plasma was separated and assayed by LC-MS.
# Single dose pharmacokinetic parameters (clearance, volume of distribution and half-life) were initially estimated using non-compartmental methods and oral bioavailability was calculated using the ratio of the dose corrected AUC after oral dosing relative to that after IV administration. Nominal doses were used in the calculations unless the measured dose differed by more than 15% from the nominal dose, in which case the measured dose was used. Where a full concentration versus time profile was obtained from a single animal, parameters were estimated for each animal and mean and standard deviations calculated. In the case of mice where sparse sampling was used with multiple animals per time point, the data analysis was conducted using the mean profile.
# [2] = test system: remaining CYP isoforms other than CYP1A2 and CYP3A4/5 (CYP2B6, CYP2C8, CYP2C9, CYP2C19, CYP2D6); assay: Cytochrome P450 inhibition, human liver microsomes; format: in vitro ADME; details: remaining isoforms (other than CYP1A2 and CYP3A4/5)
# Experimental: Direct CYP inhibition studies were conducted using conditions described previously ([43]) following incubation of isoform-specific substrates with human liver microsomes. The formation of known metabolites mediated by a specific CYP isoform was monitored. CYP isoform-specific pathways (and positive control inhibitors) included CYP1A2: phenacetin O-deethylation (furafylline), CYP2B6: bupropion hydroxylation (PPP), CYP2C8: amodiaquine deethylation (quercetin) CYP2C9: tolbutamide methylhydroxylation (sulfaphenazole), CYP2C19: (S)-mephenytoin 4’-hydroxylation (ticlopidine), CYP2D6: dextromethorphan O-demethylation (quinidine), and CYP3A: midazolam 1’-hydroxylation and testosterone 6β-hydroxylation (ketoconazole). […] The organic solvent content was maintained at less than 1% (v/v). NADPH was added to initiate the reaction which was then quenched by the addition of acetonitrile containing internal standard at specified times. Concentrations of the isoform-specific metabolites were quantified by LC-MS (Waters Xevo TQD triple quadrupole MS coupled to a Waters Acquity UPLC system) relative to calibration standards prepared in pre-quenched microsomal matrix.
# L. donovani = assay: Leishmania intramacrophage in vitro assay; format: cell-based
# Experimental: A drug incubation period of 96 h was applied, and cells were stained with Giemsa for microscopic evaluation of cellular amastigote burdens. Percentage reduction compared to the burden in the infected non-treated control wells was used as a measure for drug activity.
# Alternatively, differentiated macrophage host cells derived from THP-1 (human leukemia monocytes) were infected at a multiplicity of infection of 1:2.5 (ratio of host cells to parasites) with L. donovani MHOM/IN/80/DD8 culture-maintained promastigotes. L. donovani MHOM/IN/80/DD8 (ATCC 50212) promastigote parasites and THP-1 (ATCC TIB202) cells were maintained as previously described ([20]). A drug incubation period of 96 h was applied, plates fixed with 4% paraformaldehyde and stained with SYBR® green and CellMask Deep Red™ (ThermoFisher Scientific). Images were acquired on an Opera high-content imaging system (PerkinElmer). Healthy host (THP-1) cells and intracellular amastigotes were identified using CellMask Deep Red cytoplasmic and SYBR green nuclear area and intensities, with intracellular parasites identified based on spot detection algorithms (size and intensity measurements used to define parasite nucleus) to determine the number of parasites present within THP-1 host cells. An infected cell was defined as a host cell containing >3 parasites within the cytoplasm boundary. Compound activity was determined based on the number of infected cells normalized to the positive (10μM DNDI-1044) and negative (0.4% DMSO) controls. Non-linear sigmoidal dose-response curves with no constraints were plotted, and IC50 was calculated. The IC50s were calculated from two independent experiments.
# [3] = Exploratory 14-day rat toxicology study
# Text: Parameters monitored included morbidity/mortality, clinical signs, body weight, food consumption, hematology and serum clinical chemistry. Main study animals were killed on the day after the last dose and necropsied. Selected organs were weighed. Organ/tissue samples were fixed and preserved at necropsy. Following the macroscopic examination, selected organs/tissues were examined histopathologically and compared to the control group. Satellite animals were sampled for toxicokinetics on days 1 and 14, at various time-points after treatment.
# Caco-2 cell monolayers = assay: Caco-2 permeability; format: in vitro ADME
# Experimental: (§1) The ionization constant (pKa), octanol-pH 7.4 buffer partition coefficient (Log D7.4), solubility in biorelevant buffers (FaSSIF-V2, FeSSIF-V2, FaSSGF and pH 7.4 phosphate buffered saline (PBS)) and Caco-2 permeability were determined according to previously published methods ([10]).
# Caco-2 permeability = format: in vitro ADME; details: human
# Experimental: as §1
# [4] = test system: T. cruzi (Tulahuen strain); assay: In vitro activity against other kinetoplastid parasites; format: cell-based; details: Trypanosoma cruzi
# [5] = dogs, single oral 90 mg/kg, two individual dogs, 90 mg/kg
# [6] = male, beagle, dog, plasma, dogs, single oral 30 mg/kg
# [7] = male, beagle, dog, plasma, dogs, single oral 90 mg/kg
# [8] = male, beagle, plasma, Dog, oral 5.0 mg/kg
# [9] = L. donovani MHOM/ NP/2003/ BPK282/0-cl4
# [10] = L. donovani MHOM/ET/2007/LLM-1600
# [11] = L. donovani MHOM/NP/03/BPK275/0-cl18
# Chain of hERG (Q12809 whole entry): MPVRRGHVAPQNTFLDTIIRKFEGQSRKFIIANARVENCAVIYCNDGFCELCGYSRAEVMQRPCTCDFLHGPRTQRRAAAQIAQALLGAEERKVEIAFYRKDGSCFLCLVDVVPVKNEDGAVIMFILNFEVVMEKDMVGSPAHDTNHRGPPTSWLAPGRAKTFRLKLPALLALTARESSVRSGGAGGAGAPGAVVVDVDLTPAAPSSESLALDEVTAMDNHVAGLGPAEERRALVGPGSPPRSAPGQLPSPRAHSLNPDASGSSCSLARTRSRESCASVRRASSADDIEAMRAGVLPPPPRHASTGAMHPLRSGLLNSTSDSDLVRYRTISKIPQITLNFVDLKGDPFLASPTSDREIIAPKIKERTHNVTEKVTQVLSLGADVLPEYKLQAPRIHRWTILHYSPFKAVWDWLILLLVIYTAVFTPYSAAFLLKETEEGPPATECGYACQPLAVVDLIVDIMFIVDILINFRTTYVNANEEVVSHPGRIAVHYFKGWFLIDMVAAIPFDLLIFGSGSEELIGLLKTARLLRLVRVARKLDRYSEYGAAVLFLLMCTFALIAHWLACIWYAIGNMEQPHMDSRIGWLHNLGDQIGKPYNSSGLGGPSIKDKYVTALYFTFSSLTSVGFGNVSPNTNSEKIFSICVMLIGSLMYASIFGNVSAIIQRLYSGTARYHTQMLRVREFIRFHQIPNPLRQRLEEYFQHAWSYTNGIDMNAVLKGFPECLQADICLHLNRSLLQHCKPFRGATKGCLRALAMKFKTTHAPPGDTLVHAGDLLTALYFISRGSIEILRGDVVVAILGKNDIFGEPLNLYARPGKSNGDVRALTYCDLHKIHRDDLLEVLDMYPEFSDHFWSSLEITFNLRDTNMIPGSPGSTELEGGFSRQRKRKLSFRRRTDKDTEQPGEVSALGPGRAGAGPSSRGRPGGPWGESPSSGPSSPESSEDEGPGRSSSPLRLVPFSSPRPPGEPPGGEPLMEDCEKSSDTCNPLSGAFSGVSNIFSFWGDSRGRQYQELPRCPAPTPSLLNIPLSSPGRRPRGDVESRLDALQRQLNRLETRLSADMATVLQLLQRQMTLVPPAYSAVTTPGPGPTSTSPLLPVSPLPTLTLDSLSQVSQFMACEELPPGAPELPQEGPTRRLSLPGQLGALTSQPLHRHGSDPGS
compound,measurement,setting,value
Cc1[nH]c2nc(N)nc(C)c2c1-c1ccc(C#N)c2c1OCO2 [DNDI-6174],inhibition at 1 µM,hERG; 1 μM,3.81%
same,inhibition at 10 µM,hERG; 10 μM,48%
same,CC50,[1],> 64000 nM
same,AUC0-∞,In vivo pharmacokinetics; [5],533 µg·h/mL
same,T1/2,In vivo pharmacokinetics; [5],20.9 h
same,half-life,"In vivo pharmacokinetics; male, beagle, dog, plasma, iv, 1 mg/kg, Dog, intravenous 1.0 mg/kg, read-out: Apparent t1/2 (converted)",9.84 h
same,AUC(0-inf),"In vivo pharmacokinetics; male, beagle, dog, plasma, iv, 1 mg/kg, Dog, intravenous 1.0 mg/kg, read-out: Plasma AUC0-inf",5 µg·h/mL
same,clearance,"In vivo pharmacokinetics; male, beagle, dog, plasma, iv, 1 mg/kg, Dog, intravenous 1.0 mg/kg, read-out: Plasma CL",3.5 mL/min/kg
same,clearance,"In vivo pharmacokinetics; male, beagle, dog, plasma, iv, 1 mg/kg, Dog, read-out: Measured in vivo CLplasma",3.4 mL/min/kg
same,half-life,"In vivo pharmacokinetics; male, beagle, dog, plasma, po, 5 mg/kg, Dog, oral 5.0 mg/kg, read-out: Apparent t1/2 (converted)",6.9 h
same,AUC(0-inf),"In vivo pharmacokinetics; male, beagle, dog, plasma, po, 5 mg/kg, Dog, oral 5.0 mg/kg, read-out: Plasma AUC0-∞",18.5 µg·h/mL
same,AUC(0-inf),"In vivo pharmacokinetics; male, beagle, dog, plasma, po, 30 mg/kg, dogs, single oral 30 mg/kg, read-out: AUC0-∞",255 µg·h/mL
same,half-life,"In vivo pharmacokinetics; male, beagle, dog, plasma, po, 30 mg/kg, dogs, single oral 30 mg/kg, read-out: T1/2 (converted)",14.4 h
same,AUC(0-inf),"In vivo pharmacokinetics; male, beagle, dog, plasma, po, 90 mg/kg, dogs, single oral 90 mg/kg, two individual dogs, read-out: AUC0-∞",613 µg·h/mL
same,half-life,"In vivo pharmacokinetics; male, beagle, dog, plasma, po, 90 mg/kg, dogs, single oral 90 mg/kg, two individual dogs, read-out: T1/2 (converted)",14.2 h
same,Cmax,In vivo pharmacokinetics; [6],9590 ng/mL
same,Tmax,In vivo pharmacokinetics; [6],3.33 h
same,Cmax,In vivo pharmacokinetics; [7],19100 ng/mL
same,Tmax,In vivo pharmacokinetics; [7],10.7 h
same,Vd,"In vivo pharmacokinetics; male, beagle, plasma, Dog, intravenous 1.0 mg/kg, read-out: Plasma Vss",2.5 L/kg
same,Cmax,In vivo pharmacokinetics; [8],2020 ng/mL
same,Tmax,In vivo pharmacokinetics; [8],4 h
same,bioavailability,In vivo pharmacokinetics; [8],90%
same,pIC50,[2],< 4.82
same,pEC50,L. donovani; [9],7.30
same,EC90,L. donovani; [9],140 nM
same,pEC50,L. donovani; L. donovani MHOM/ET/67/HU3,7.05
same,EC90,L. donovani; L. donovani MHOM/ET/67/HU3,2000 nM
same,pEC50,L. donovani; [10],7.10
same,EC90,L. donovani; [10],280 nM
same,pEC50,L. donovani; L. donovani MHOM/IN/80/DD8,6.77
same,EC90,L. donovani; L. donovani MHOM/IN/80/DD8,490 nM
same,pEC50,L. donovani; [11],7.40
same,EC90,L. donovani; [11],120 nM
same,"tolerability, in words",[3]; 200 mg/kg,early sacrifice of one female on day 5
same,body weight decrease,"[3]; 200 mg/kg, males",> 10%
same,"tolerability, in words",[3]; 30 and 80 mg/kg oral,no mortality or morbidity
same,A-B Mass balance,Caco-2 cell monolayers,98%
same,B-A Mass balance,Caco-2 cell monolayers,96%
same,Papp A→B,Caco-2 permeability,71 ×10⁻⁶ cm/s
same,Papp B→A,Caco-2 permeability,72 ×10⁻⁶ cm/s
same,pEC50,[4],> 8.30
